According to patent publication US6495563B1, “Method and composition for prevention of scar formation in glaucoma filtration bleb and drainage fistula” (Synphora AB, priority 1999, dated 2002):
Marks after values point to notes of the source that are not given here.

Assays:
[1] = tested on: New Zealand White adult rabbits; experiment: Postsurgical intraocular inflammation after extracapsular lens extraction in rabbits; assay type: in vivo, rabbit; details: 10 μg/dose twice daily; for Number of animals, operated eye Normal / Number of animals, operated eye Inflamed: 5 animals
Source text: Ten New Zealand White adult rabbits underwent extracapsular lens extraction in one eye to investigate the effect of PGA2-E on postsurgical inflammation. Lens extraction was used as a model since this procedure is always followed by some inflammatory changes. The contralateral eye was used as an untreated control eye in each animal. The operated eyes were given routine postsurgical treatment with corticosteroids and mydriatics for about one month. From the day after the surgery and for a total of 4 months 5 of the animals were treated with PGA2-IE eye drops twice daily (10 μg/dose) in the operated eye while the contralateral control (non-operated) eye received no treatment. The other 5 animals were treated with the vehicle only twice daily for the same period of time. […] The signs of inflammation comprised miosis, iridial hyperemia, flare and fibrin accumulation in the anterior chamber, and additional anti-inflammatory medication had to be given to these animals.

[2] = tested on: New Zealand White adult rabbits; experiment: Intraocular pressure after modified trabeculectomy surgery in rabbits with topical eye drops; assay type: in vivo, rabbit
Method: Ten New Zealand White adult rabbits underwent modified unilateral trabeculectomy surgery and were treated with corticosteroids and mydriatics postoperatively for about one month according to a clinical protocol. Starting the same day as the surgery was performed, the operated eye in five animals was in addition treated twice daily with PGA2-IE eye drops (10 μg/dose) for 4 months, while in the other five animals the operated eye was treated with vehicle only for the same period of time. The intraocular pressure was measured throughout the treatment period at least every second week. […] From FIG. 4 it is apparent that the difference in intraocular pressure between the vehicle-treated operated and control eyes steadily diminished with time which was quite opposite to the difference in traocular pressure between the PGA2-IE-treated operated and control eyes in FIG. 5. Thus it appears that even during this short treatment period (4 months) a difference in the level of intraocular pressure reduction between the PGA2-IE treated and vehicle-treated operated eyes is manifested, and at the end of the treatment period the difference in intraocular pressure reduction was statistically significant (p<0.05) (Table 1).

Human fibroblasts = experiment: Antiproliferative effect on cultured human fibroblasts (crystal violet absorbance as measure of cell number); assay type: cell-based; details: for Effect on cell number of the cultures (decrease in crystal violet absorbance): 10^−6 to 10^−3 Moles/l, 5-7 days; for EC50 value for reducing cell number / EC50: 5-7 days of culture, crystal violet absorbance at 595 nm; for EC50: read-out: EC50 value for reducing cell number
Method: The following prostaglandins, purchased from Cayman Chemicals, Ann Arbor, Mich., USA, and Biomol Feinchemikalien GmbH, Hamburg, Germany were used in the experiments: prostaglandin A1 (PGA1), prostaglandin A2 (PGA2), prostaglandin J2 (PGJ2) and 15-deoxy-Δ^12,14-prostaglandin J2 (15-Δ^12,14-PGJ2). The chemical structures of the test compounds are depicted in FIG. 1. All test compounds were stored at −20° C., and fresh solutions containing the appropriate concentrations of the test compounds were made every second day. The test compounds were initially dissolved in ethanol and then diluted in the culture medium.
Human fibroblasts were used at passage 22-24. The culture medium consisted of DMEM with 10% fetal calf serum and 50 μg/ml gentamycin. Around 10,000 cells were seeded into each well of 48 well microtiter plates. The total volume of culture medium was about 250 μl/well. The cells were incubated at 37° C. with 5% CO2 humidified air. The culture medium was changed every second day, and at the same time new, freshly prepared prostaglandin was added to the medium. The test compounds were investigated at several concentrations in the range of 10^−6 to 10^−3 Moles/l. […] The concentrations in the figures depicting the results are expressed as the negative logarithm The culture medium alone served as control. After 5-7 days of culture the experiment was terminated by fixation of the cells in 1% glutaraldehyde. The cells were then stained with 0.1% crystal violet, and the stain was eluted with 2.5% sodium lauryl sulphate. The absorbance of the colored solutions was determined spectrophotometrically. Each experiment was performed at least in duplicate.

For `CCCCC[C@H](O)/C=C/[C@H]1C=CC(=O)[C@@H]1C/C=C\CCCC(=O)OC(C)C` [PGA2-IE, PGA2-isopropyl ester], the “Number of animals, operated eye Normal” value ([1]; 2 months after surgery) was 3, the “Number of animals, operated eye Inflamed” value ([1]; 2 months after surgery, one only slightly inflamed) was 2* and the “Anti-inflammatory effect in the eye” value ([1]; 4 month treatment) was “remarkable anti-inflammatory effect”. The “Number of animals, operated eye Inflamed” value ([1]; 4 months after surgery) was 1, the “Number of animals, operated eye Normal” value ([1]; 4 months after surgery) was 4 and the “Maintenance of the intraocular pressure at a reduced level after surgery compared with vehicle” value ([2]; 4 months, 10 μg/dose twice daily) was “clear tendency towards better maintenance of the intraocular pressure at a reduced level”. For the same compound, the “Adverse effects in the eye (local inflammation or increased intraocular pressure)” value ([2]; 4 months, 10 μg/dose twice daily topical) was “no adversarial effects in the eye”, the “Intraocular pressure, operated eye” value ([2]; end of 4 month treatment, 10 μg/dose twice daily eye drops, n=5) was 17.2 ± 2.9 mmHg and the “Intraocular pressure, difference between control eye and operated eye” value ([2]; end of 4 month treatment, 10 μg/dose twice daily eye drops, n=5, p<0.05 vs vehicle group) was 3.8 ± 1.0 mmHg.
For `CCCCC[C@H](O)/C=C/[C@H]1C=CC(=O)[C@@H]1CCCCCCC(=O)O` [PGA1, prostaglandin A1], the “Effect on cell number of the cultures (decrease in crystal violet absorbance)” value (from here on “Effect … (decrease in crystal violet absorbance)”) (Human fibroblasts) was “effectively reduced the cell number”.
`CCCCC/C=C/C=C1/C(=O)C=C[C@@H]1C/C=C\CCCC(=O)O` [15-deoxy-Δ^12,14-PGJ2, 15-deoxy-Δ^12,14-prostaglandin J2] was tested, and the “Effect … (decrease in crystal violet absorbance)” value (Human fibroblasts) was “effectively reduced the cell number”.
In the case of `CCCCC[C@H](O)/C=C/[C@H]1C(=O)C=C[C@@H]1C/C=C\CCCC(=O)O` [PGJ2, prostaglandin J2], the “EC50 value for reducing cell number” value (Human fibroblasts) is reported as “about −4.75 log units”, the EC50 (Human fibroblasts) is reported as roughly 20 µM and the “Effect … (decrease in crystal violet absorbance)” value (Human fibroblasts) is reported as “effectively reduced the cell number”.
`CCCCC[C@H](O)/C=C/[C@H]1C=CC(=O)[C@@H]1C/C=C\CCCC(=O)O` [PGA2, prostaglandin A2] was tested, and the “EC50 value for reducing cell number” value (Human fibroblasts) was “around −5.5 log units”, the EC50 (Human fibroblasts) was roughly 3 µM and the “Effect … (decrease in crystal violet absorbance)” value (Human fibroblasts) was “effectively reduced the cell number”.
